What was measured:
[1] = tested on: ovariectomated rats; assay: Hepatic parameters: HDL cholesterol levels in serum, enzymatic test; type: in vivo, rat; details: Experiment A
Excerpt: (§1) The laboratory animals, adult female rats (breeder: HSD/WIN:WU) were ovariectomated on day 14. Treatment started two weeks later by a single oral application per day of the respective test substance. The dosages given for esters refer to the steroid portion of the substances. The tests were made in three groups (A, B, C) at various points in time. This is why there is a deviation in control group values. The tests of series A, B, and C can therefore be compared among each other if the values for the respective control groups are taken into account.
(§2) The procedure of allocating animals to groups was randomized. The experiment was carried out as a block test. The animals were weighed at the beginning and at the end of the experiment.
(§3) The start of treatment was defined as day 1 (=d1), treatment was finished on day 7 (=d7); the animals were killed on day 8, various organs (uteri, adrenal glands, liver) were removed, weighed and deep-frozen (−196° C.) for further examination.
(§4) Blood was taken from the retrobulbar plexus under ether anaesthesia prior to treatment (d0), and on (d4) and (d8). IGF1, angiotensin I, cholesterol and HDL cholesterol were determined in the serum obtained.
(§5) cholesterol/HDL: enzymatic tests, photometric determination, reagents by Dr Bruno Lange GmbH.

[2] = tested on: ovariectomated rats; assay: Hepatic parameters: serum angiotensin I, modified RIA for renin activity; type: in vivo, rat; design: Angiotensin I: unit not given here; details: for Angiotensin I: Experiment A
Excerpt: as §1, §2, §3, §4
angiotensin: modified RIA for renin activity by Sorin Co.

[3] = oral, humans, Goldzieher study; cited from earlier work
[4] = tested on: ovariectomated rats; assay: Oral estrogenic effects: weights of adrenal glands in ovariectomated rats; type: in vivo, rat
Excerpt: as §1, §2, §3

[5] = tested on: ovariectomated rats; assay: Hepatic parameters: total cholesterol levels in serum, enzymatic test; type: in vivo, rat; details: Experiment A
Experimental: The laboratory animals, adult female rats (breeder: HSD/WIN:WU) were ovariectomated on day 14. Treatment started two weeks later by a single oral application per day of the respective test substance. The dosages given for esters refer to the steroid portion of the substances. The tests were made in three groups (A, B, C) at various points in time.
as §2, §3, §4, §5

[6] = tested on: ovariectomated rats; assay: Oral estrogen treatment: serum IGF1 (somatomedin C), RIA; type: in vivo, rat; design: unit not given here; details: Experiment A
Excerpt: as §1, §2, §3, §4
IGF1: RIA by bioMérieux Co.;

[7] = tested on: ovariectomated rats; assay: Oral estrogenic effects: uterus weights in ovariectomated rats; type: in vivo, rat
Excerpt: as §1, §2, §3

[8] = day 4, 0.1 μg/animal/day p.o. d1-d7
[9] = day 4, 1 μg/animal/day p.o. d1-d7
[10] = day 4, 10 μg/animal/day p.o. d1-d7
[11] = day 4, 100 μg/animal/day p.o. d1-d7
[12] = day 8, 0.1 μg/animal/day p.o. d1-d7
[13] = day 8, 1 μg/animal/day p.o. d1-d7
[14] = day 8, 10 μg/animal/day p.o. d1-d7
[15] = day 8, 100 μg/animal/day p.o. d1-d7
[16] = Experiment A, 0.1 μg/animal/day p.o. d1-d7
[17] = Experiment A, 1 μg/animal/day p.o. d1-d7
[18] = Experiment A, 10 μg/animal/day p.o. d1-d7
[19] = Experiment A, 100 μg/animal/day p.o. d1-d7
[20] = Experiment B, 10 μg/animal/day p.o. d1-d7

SMILES: C#C[C@]1(O)CC[C@H]2[C@@H]3CCc4cc(O)ccc4[C@H]3CC[C@@]21C [EE, ethinyl estradiol]
- HDL cholesterol levels (mean value ± standard deviation) [1, 8]: 49.6 ± 2.9 mg/dL
- HDL cholesterol levels (mean value ± standard deviation) [1, 9]: 47.1 ± 8.5 mg/dL
- HDL cholesterol levels (mean value ± standard deviation) [1, 10]: 19.5 ± 8.4 mg/dL
- HDL cholesterol levels (mean value ± standard deviation) [1, 11]: 3.6 ± 1.3 mg/dL
- HDL cholesterol levels (mean value ± standard deviation) [1, 12]: 52.2 ± 4.1 mg/dL
- HDL cholesterol levels (mean value ± standard deviation) [1, 13]: 49.5 ± 6.9 mg/dL
- HDL cholesterol levels (mean value ± standard deviation) [1, 14]: 26.5 ± 7.8 mg/dL
- HDL cholesterol levels (mean value ± standard deviation) [1, 15]: 2.4 ± 0.9 mg/dL
- Angiotensin I [2, 8]: 408.2 ± 31.2
- Angiotensin I [2, 9]: 402.2 ± 30.3
- Angiotensin I [2, 10]: 572.2 ± 35.0
- Angiotensin I [2, 11]: 930.1 ± 146.2
- Angiotensin I [2, 12]: 473.7 ± 19.7
- Angiotensin I [2, 13]: 492.6 ± 29.1
- Angiotensin I [2, 14]: 498.7 ± 26.1
- Angiotensin I [2, 15]: 833.1 ± 137.2
- Effect on angiotensin I (AI) values, in words ([2]; doses of 10 or 100 μg, detectable as early as day 4): sharp increases of AI
- Highest AUC found, measured 0 to 24 hours after application [3]: 2.121 ng·h/mL
- Lowest AUC, measured 0 to 24 hours after application [3]: 0.284 ng·h/mL
- Weights of adrenal glands (mean value) [4, 16]: 53.7 mg
- Weights of adrenal glands (mean value) [4, 17]: 58.9 mg
- Weights of adrenal glands (mean value) [4, 18]: 59.0 mg
- Weights of adrenal glands (mean value) [4, 19]: 80.8 mg
- Weights of adrenal glands (mean value) [4, 20]: 56.6 mg
- Total cholesterol levels (mean value ± standard deviation) [5, 8]: 81.0 ± 3.3 mg/dL
- Total cholesterol levels (mean value ± standard deviation) [5, 9]: 82.4 ± 15.8 mg/dL
- Total cholesterol levels (mean value ± standard deviation) [5, 10]: 30.3 ± 9.6 mg/dL
- Total cholesterol levels (mean value ± standard deviation) [5, 11]: 6.8 ± 3.2 mg/dL
- Total cholesterol levels (mean value ± standard deviation) [5, 12]: 86.5 ± 9.6 mg/dL
- Total cholesterol levels (mean value ± standard deviation) [5, 13]: 80.2 ± 14.4 mg/dL
- Total cholesterol levels (mean value ± standard deviation) [5, 14]: 39.8 ± 10.2 mg/dL
- Total cholesterol levels (mean value ± standard deviation) [5, 15]: 5.5 ± 3.3 mg/dL
- IGF1 (= somatomedin C) ([6]; 100 μg/animal/day p.o. d1-d7, d 0 (prior to treatment)): 704.6 ± 70.4
- IGF1 (= somatomedin C) ([6]; 100 μg/animal/day p.o. d1-d7, d 4): 547.0 ± 88.7
- IGF1 (= somatomedin C) ([6]; 100 μg/animal/day p.o. d1-d7, d 8): 393.6 ± 71.1
- Uterus weights (mean value) [7, 16]: 152.2 mg
- Uterus weights (mean value) [7, 17]: 195.8 mg
- Uterus weights (mean value) [7, 18]: 282.4 mg
- Uterus weights (mean value) [7, 19]: 441.2 mg
- Uterus weights (mean value) [7, 20]: 352.59 mg

From patent publication US6841548B2, “Pharmaceutical preparations containing estra-1,3,5(10)-triene derivatives” (Schering AG, priority 1994, dated 2005)
